Measurements published in patent US8962843B2, “1,3,4-oxadiazole and 1,3,4-thiadiazole beta-lactamase inhibitors” (priority 2012, dated 2015).
Structures can show the parent of a compound that is named as a salt.

Columns and labels:
[1] = tested on: bacterial strains that express the class D cephalosporinase OXA-15; experiment: Standard BLI potentiation MIC / synergy MIC assays, strains expressing OXA-15; assay type: cell-based, E. coli; settings: in combination with a β-lactam; comparator Avibactam (CCC)
Protocol: (§1) The experimental protocol was performed according to Clinical and Laboratory Standards Institute (CLSI) guidelines with modifications as described below (CLSI guidelines can be derived from the CLSI document M07-A9 published in January 2012: “Methods for Dilution Antimicrobial Susceptibility Tests for Bacteria That Grow Aerobically; Approved Standard-Ninth Edition”).
(§2) To prepare for MIC testing, frozen glycerol stocks of clinical isolates (Klebsiella pneumoniae, Eschericia coli, Enterobacter spp, Citrobacter spp, or Pseudomonas aeruginosa) were used to streak for isolated colonies on rich, non-selective, tryptic soy agar containing 5% sheep's blood (TSAB). Frozen glycerol stocks of laboratory engineered, isogenic E. coli strains, which contain cloned β-lactamase expressing plasmids were used to streak for isolated colonies on rich, selective LB agar supplemented with 25 μg/mL tetracycline to maintain the plasmid. All strains were incubated at 37° C. for 18-24 hrs.
(§3) On the day of testing, primary cultures were started by scraping off 5-10 colonies from the TSAB plates containing clinical strains or the tetracycline supplemented LB plates containing engineered strains. The clinical strain material was suspended in ˜5 mL of cation adjusted Mueller Hinton Broth (CAMHB) in 14 mL culture tubes. The engineered strain material was suspended in CAMHB (supplemented with 25 μg/mL tetracycline) in 14 mL culture tubes. All strains were incubated at 37° C. with aeration (200 rpm) for ˜2 hrs until the optical density at 600 nm (OD600) was >0.1.
(§4) The two compound components of the assay were each diluted in CAMHB and added to the 96-well broth microdilution assay plates. 50 μL of the β-lactam was added to each well of the assay plate in 2-fold dilutions with final concentrations ranging from 128 to 0.13 μg/mL. 25 μL of the BLI compound was added to all wells in the broth microdilution plates at a final concentration of 4 μg/mL. Inoculum cultures were prepared by standardizing the primary cultures to OD600=0.1 and then adding 20 μL of the adjusted primary culture per 1 mL CAMHB for clinical strains or CAMHB (supplemented with tetracycline at 100 μg/mL) for engineered strains, so that the final inoculum density was ˜10^5 colony forming units per milliliter. Diluted inoculum cultures were used to inoculate 25 μl, per well in 96-well broth microdilution assay plates. The final volume of each well was 100 μL and contained a β-lactam at different concentrations, a BLlcompound at 4 μg/mL concentration, the bacterial culture at an OD600 of approximately 0.001 and when necessary tetracycline at 25 μg/mL.
(§5) Plates were incubated for 18-20 hours at 37° C. with aeration (200 rpm). Following incubation, growth was confirmed visually placing plates over a viewing apparatus (stand with a mirror underneath) and then OD600 was measured using a SpectraMax 340PC384 plate reader (Molecular Devices, Sunnyvale, Calif.). Growth was defined as turbidity that could be detected with the naked eye or achieving minimum OD600 of 0.1. MIC values were defined as the lowest concentration producing no visible turbidity.
(§6) The synergy MIC (sMIC) assay determines the concentration of the BLI required to potentiate the activity of a fixed concentration of a β-lactam antibiotic against β-lactamase producing bacterial strains. The experimental protocol was performed according to Clinical and Laboratory Standards Institute (CLSI) guidelines with modifications as described below (CLSI guidelines can be derived from the CLSI document M07-A9 published in January 2012: “Methods for Dilution Antimicrobial Susceptibility Tests for Bacteria That Grow Aerobically; Approved Standard-Ninth Edition”). […]

[2] = tested on: bacterial strains that express KPC β-lactamases; experiment: Standard BLI potentiation MIC / synergy MIC assays, strains expressing KPC β-lactamases; assay type: cell-based; settings: in combination with a β-lactam; comparator Avibactam
Protocol: as §1, §2, §3, §4, §5, §6

Question: With `O=C1N2C[C@@H](CC[C@H]2c2nnc(CN[C@@H]3CCNC3)o2)N1OS(=O)(=O)O` [Compound 766, (2S,5R)-7-oxo-2-(5-(((R)-pyrrolidin-3-ylamino)methyl)-1,3,4-oxadiazol-2-yl)-1,6-diazabicyclo[3.2.1]octan-6-yl hydrogen sulfate] as the compound, how does the “activity against bacterial strains that express the class D cephalosporinase OXA-15, compared with Avibactam” value [1] read?
Answer: more active than Avibactam

Question: And the “activity and/or spectrum of activity against bacterial strains that express KPC β-lactamases, compared with Avibactam” value [2]?
Answer: more active than Avibactam for at least one, bacterial strain that expresses KPC β-lactamase and/or show a better spectrum of activity

Question: Which results are given for `N=C(N)N1CC(NCc2nnc([C@@H]3CC[C@@H]4CN3C(=O)N4OS(=O)(=O)O)o2)C1` [Compound 746, (2S,5R)-2-(5-(((1-carbamimidoylazetidin-3-yl)amino)methyl)-1,3,4-oxadiazol-2-yl)-7-oxo-1,6-diazabicyclo[3.2.1]octan-6-yl hydrogen sulfate]?
Answer: activity against bacterial strains that express the class D cephalosporinase OXA-15, compared with Avibactam [1]: more active than Avibactam; activity and/or spectrum of activity against bacterial strains that express KPC β-lactamases, compared with Avibactam [2]: more active than Avibactam for at least one, bacterial strain that expresses KPC β-lactamase and/or show a better spectrum of activity

Question: How did the “activity against bacterial strains that express the class D cephalosporinase OXA-15, compared with Avibactam” value [1] turn out when `N=C(N)N[C@H]1C[C@@H](c2nnc([C@@H]3CC[C@@H]4CN3C(=O)N4OS(=O)(=O)O)s2)C1` [Compound 784, (2S,5R)-2-(5-((1s,3R)-3-guanidinocyclobutyl)-1,3,4-thiadiazol-2-yl)-7-oxo-1,6-diazabicyclo[3.2.1]octan-6-yl hydrogen sulfate] was run?
Answer: more active than Avibactam

Question: And the “activity and/or spectrum of activity against bacterial strains that express KPC β-lactamases, compared with Avibactam” value [2]?
Answer: more active than Avibactam for at least one, bacterial strain that expresses KPC β-lactamase and/or show a better spectrum of activity

Question: For `O=C1N2C[C@@H](CC[C@H]2c2nnc(C3CCNC3)o2)N1OS(=O)(=O)O` (stereo partly drawn) [Compound 710, (2S,5R)-7-oxo-2-(5-(pyrrolidin-3-yl)-1,3,4-oxadiazol-2-yl)-1,6-diazabicyclo[3.2.1]octan-6-yl hydrogen sulfate], which “activity against bacterial strains that express the class D cephalosporinase OXA-15, compared with Avibactam” value [1] is on record?
Answer: more active than Avibactam

Question: What about the “activity and/or spectrum of activity against bacterial strains that express KPC β-lactamases, compared with Avibactam” value [2] of the same compound?
Answer: more active than Avibactam for at least one, bacterial strain that expresses KPC β-lactamase and/or show a better spectrum of activity

Question: With `N[C@H]1C[C@@H](CCc2nnc([C@@H]3CC[C@@H]4CN3C(=O)N4OS(=O)(=O)O)o2)C1` [Compound 754, (2S,5R)-2-(5-(2-((1s,3S)-3-aminocyclobutyl)ethyl)-1,3,4-oxadiazol-2-yl)-7-oxo-1,6-diazabicyclo[3.2.1]octan-6-yl hydrogen sulfate] as the compound, how does the “activity against bacterial strains that express the class D cephalosporinase OXA-15, compared with Avibactam” value [1] read?
Answer: more active than Avibactam

Question: What about the “activity and/or spectrum of activity against bacterial strains that express KPC β-lactamases, compared with Avibactam” value [2] of the same compound?
Answer: more active than Avibactam for at least one, bacterial strain that expresses KPC β-lactamase and/or show a better spectrum of activity

Question: Which results are given for `N[C@@H]1CC[C@H](c2nnc([C@@H]3CC[C@@H]4CN3C(=O)N4OS(=O)(=O)O)o2)C1` [Compound 729, (2S,5R)-2-(5-((1S,3R)-3-aminocyclopentyl)-1,3,4-oxadiazol-2-yl)-7-oxo-1,6-diazabicyclo[3.2.1]octan-6-yl hydrogen sulfate]?
Answer: activity against bacterial strains that express the class D cephalosporinase OXA-15, compared with Avibactam [1]: more active than Avibactam; activity and/or spectrum of activity against bacterial strains that express KPC β-lactamases, compared with Avibactam [2]: more active than Avibactam for at least one, bacterial strain that expresses KPC β-lactamase and/or show a better spectrum of activity

Question: What does the source list for `O=C1N2C[C@@H](CC[C@H]2c2nnc(CCC3CNC3)o2)N1OS(=O)(=O)O` [Compound 742, (2S,5R)-2-(5-(2-(azetidin-3-ybethyl)-1,3,4-oxadiazol-2-yl)-7-oxo-1,6-diazabicyclo[3.2.1]octan-6-yl hydrogen sulfate]?
Answer: activity against bacterial strains that express the class D cephalosporinase OXA-15, compared with Avibactam [1]: more active than Avibactam; activity and/or spectrum of activity against bacterial strains that express KPC β-lactamases, compared with Avibactam [2]: more active than Avibactam for at least one, bacterial strain that expresses KPC β-lactamase and/or show a better spectrum of activity

Question: How did the “activity against bacterial strains that express the class D cephalosporinase OXA-15, compared with Avibactam” value [1] turn out when `NCCCc1nnc([C@@H]2CC[C@@H]3CN2C(=O)N3OS(=O)(=O)O)o1` [Compound 720, (2S,5R)-2-(5-(3-aminopropyl)-1,3,4-oxadiazol-2-yl)-7-oxo-1,6-diazabicyclo[3.2.1]octan-6-yl hydrogen sulfate] was run?
Answer: more active than Avibactam

Question: What about the “activity and/or spectrum of activity against bacterial strains that express KPC β-lactamases, compared with Avibactam” value [2] of the same compound?
Answer: more active than Avibactam for at least one, bacterial strain that expresses KPC β-lactamase and/or show a better spectrum of activity

Question: Which results are given for `N=C(N)N[C@H]1C[C@@H](c2nnc([C@@H]3CC[C@@H]4CN3C(=O)N4OS(=O)(=O)O)o2)C1` [Compound 749, (2S,5R)-2-(5-((1s,3R)-3-guanidinocyclobutyl)-1,3,4-oxadiazol-2-yl)-7-oxo-1,6-diazabicyclo[3.2.1]octan-6-yl hydrogen sulfate]?
Answer: activity against bacterial strains that express the class D cephalosporinase OXA-15, compared with Avibactam [1]: more active than Avibactam; activity and/or spectrum of activity against bacterial strains that express KPC β-lactamases, compared with Avibactam [2]: more active than Avibactam for at least one, bacterial strain that expresses KPC β-lactamase and/or show a better spectrum of activity

Question: Which “activity against bacterial strains that express the class D cephalosporinase OXA-15, compared with Avibactam” value [1] does the source give for `O=C1N2C[C@@H](CC[C@H]2c2nnc(CCCNC3CCNCC3)o2)N1OS(=O)(=O)O` [Compound 771, (2S,5R)-7-oxo-2-(5-(3-(piperidin-4-ylamino)propyl)-1,3,4-oxadiazol-2-yl)-1,6-diazabicyclo[3.2.1]octan-6-yl hydrogen sulfate] here?
Answer: more active than Avibactam

Question: What about the “activity and/or spectrum of activity against bacterial strains that express KPC β-lactamases, compared with Avibactam” value [2] of the same compound?
Answer: more active than Avibactam for at least one, bacterial strain that expresses KPC β-lactamase and/or show a better spectrum of activity

Question: With `N[C@H]1C[C@@H](Cc2nnc([C@@H]3CC[C@@H]4CN3C(=O)N4OS(=O)(=O)O)o2)C1` [Compound 728, (2S,5R)-2-(5-(((1s,3R)-3-aminocyclobutyl)methyl)-1,3,4-oxadiazol-2-yl)-7-oxo-1,6-diazabicyclo[3.2.1]octan-6-yl hydrogen sulfate] as the compound, how does the “activity against bacterial strains that express the class D cephalosporinase OXA-15, compared with Avibactam” value [1] read?
Answer: more active than Avibactam

Question: And the “activity and/or spectrum of activity against bacterial strains that express KPC β-lactamases, compared with Avibactam” value [2]?
Answer: more active than Avibactam for at least one, bacterial strain that expresses KPC β-lactamase and/or show a better spectrum of activity

Question: What does the source list for `N[C@H]1C[C@H](Cc2nnc([C@@H]3CC[C@@H]4CN3C(=O)N4OS(=O)(=O)O)o2)C1` [Compound 751, (2S,5R)-2-(5-(((1r,3S)-3-aminocyclobutyl)methyl)-1,3,4-oxadiazol-2-yl)-7-oxo-1,6-diazabicyclo[3.2.1]octan-6-yl hydrogen sulfate]?
Answer: activity against bacterial strains that express the class D cephalosporinase OXA-15, compared with Avibactam [1]: more active than Avibactam; activity and/or spectrum of activity against bacterial strains that express KPC β-lactamases, compared with Avibactam [2]: more active than Avibactam for at least one, bacterial strain that expresses KPC β-lactamase and/or show a better spectrum of activity

Question: Which results are given for `O=C1N2C[C@@H](CC[C@H]2c2nnc(CC3CCNC3)o2)N1OS(=O)(=O)O` (stereo partly drawn) [Compound 764, (2S,5R)-7-oxo-2-(5-(pyrrolidin-3-ylmethyl)-1,3,4-oxadiazol-2-yl)-1,6-diazabicyclo[3.2.1]octan-6-yl hydrogen sulfate]?
Answer: activity against bacterial strains that express the class D cephalosporinase OXA-15, compared with Avibactam [1]: more active than Avibactam; activity and/or spectrum of activity against bacterial strains that express KPC β-lactamases, compared with Avibactam [2]: more active than Avibactam for at least one, bacterial strain that expresses KPC β-lactamase and/or show a better spectrum of activity
